Source: patent publication US12263155B2, “Combinations of monoamine oxidase inhibitors and serotonin receptor agonists and their therapeutic use” (Remedi, Inc., priority 2022, dated 2025)

How the values were obtained:
[1] = Phase 1 single dose escalation pharmacokinetics; settings: for Clast / Cmax/Dose / Tlast / % AUCextrap / AUCinf/Dose / kel / AUC(0-t): mean; for Cmax / Tmax / concentration at 24 h / AUC(0-t) / AUC(0-inf) / CL/F / Vd/F / half-life: male, human, plasma, po
Experimental: Methods: The trial was a Phase 1, single center, double-blind, placebo-controlled, sequential group, acute dose escalation study of the safety and pharmacokinetics of seven (7) CX157 dose levels in healthy male volunteers. Each of the seven (7) dose groups consisted of six (6) subjects, with the exception of cohort 2 (CX157 10 mg or placebo) which enrolled only five (5) subjects. Within each dose group, four (4) subjects were randomized to CX157 and two (2) subjects to placebo. Subjects were normal healthy volunteers confined to the study center for approximately 4 days, beginning approximately 16 hours before exposure to study drug and ending approximately 48 hours after exposure to study drug. Safety and tolerability was assessed for each dose group by the Principal Investigator before advancing to the next scheduled dose group. CX157 was administered as a fully solubilized microemulsion in Labrasol™
Plasma samples for the pharmacokinetic analysis of CX157 were obtained at predose (30 minutes prior to dosing), 10, 20, 30, 60 and 90 minutes, 2, 4, 8, 12, 16, 24, 36 and 48 hours after dosing. […] FIG. 11 details the plasma concentrations of CX157 (in ng/mL) of subjects for each of the seven dose groups, wherein the dosage amounts of CX157 administered to the subjects were 5 mg, 10 mg, 15 mg, 20 mg, 40 mg, 80 mg, and 120 mg.
Formulation: Each natural/transparent Licaps® size 0 hard gelatin capsule contains 5 mg or 10 mg CX157 in Labrasol™; each capsule is banded with a green gelatin band that is comprised of gelatin NF and polysorbate-80 NF. CX157 Liquid Filled Capsules are packaged in white, opaque, high density polyethylene (HDPE) bottles with screw-top polypropylene child resistant caps. Each bottle contains 30 capsules per bottle. CX157 Liquid Filled Capsules, 5 mg and 10 mg are stored long-term at controlled room temperature conditions [i15° C. to 30° C. (59° F. to 86° F.)].

MAO-A = biological target: T1, MAO-A (Homo sapiens, UniProt P21397); test: Phase I 14-day twice-daily pharmacodynamics; assay type: in vivo; design: administered for 14 days compared to placebo in healthy male and female volunteers; from tissue; host or cells: in vivo, healthy volunteers; settings: repeated administration 10, 20, 40 mg twice daily
T1 sequence (P21397 1-527): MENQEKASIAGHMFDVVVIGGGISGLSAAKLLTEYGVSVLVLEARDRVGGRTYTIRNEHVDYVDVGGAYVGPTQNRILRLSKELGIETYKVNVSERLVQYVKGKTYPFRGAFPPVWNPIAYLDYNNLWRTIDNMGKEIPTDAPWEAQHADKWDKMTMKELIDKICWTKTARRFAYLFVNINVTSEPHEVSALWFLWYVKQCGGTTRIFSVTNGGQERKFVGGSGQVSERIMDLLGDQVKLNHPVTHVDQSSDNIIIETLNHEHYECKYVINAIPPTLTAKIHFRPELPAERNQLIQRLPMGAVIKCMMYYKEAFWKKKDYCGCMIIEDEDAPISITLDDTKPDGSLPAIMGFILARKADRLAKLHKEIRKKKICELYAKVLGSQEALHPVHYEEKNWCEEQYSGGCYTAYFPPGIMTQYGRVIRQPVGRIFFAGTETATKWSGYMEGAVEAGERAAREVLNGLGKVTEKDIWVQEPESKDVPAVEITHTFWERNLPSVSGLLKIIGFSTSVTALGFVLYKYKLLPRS
Experimental: Methods: The study was a Phase I, single-center, randomized, parallel-group, multiple-dose, placebo-controlled, pharmacodynamic, pharmacokinetic and safety study in healthy volunteers. To obtain 24 enrolled subjects, screening procedures and inclusion/exclusion criteria were evaluated for 54 subjects during a variable screening period of up to 28 days.

[2] = healthy males, single oral 5 mg
[3] = healthy males, single oral 10 mg
[4] = healthy males, single oral 15 mg
[5] = healthy males, single oral 20 mg
[6] = healthy males, single oral 40 mg
[7] = healthy males, single oral 80 mg

## O=S1(=O)c2ccc(F)cc2Oc2cc(OCC(F)(F)F)ccc21 [CX157, 3-fluoro-7(2,2,2-trifluorethoxy)phenoxathiine-10,10-dioxide]
[1]; [2]
  Clast: 0.15 ng/mL
  Cmax/Dose: 87
  Tlast: 17 h
[1]; [3]
  % AUCextrap: 6.2%
  AUCinf/Dose: 906
  Clast: 0.2 ng/mL
  Cmax/Dose: 182
  Tlast: 40 h
  kel: 0.0371 h⁻¹
[1]; [4]
  % AUCextrap: 5%
  AUCinf/Dose: 673
  Clast: 0.38 ng/mL
  Cmax/Dose: 212
  Tlast: 45 h
  kel: 0.0529 h⁻¹
[1]; [5]
  % AUCextrap: 3.1%
  AUCinf/Dose: 701
  Clast: 0.24 ng/mL
  Cmax/Dose: 251
  Tlast: 48 h
  kel: 0.0488 h⁻¹
[1]; [6]
  % AUCextrap: 3.3%
  AUCinf/Dose: 619
  Clast: 0.48 ng/mL
  Cmax/Dose: 234
  Tlast: 48 h
  kel: 0.0459 h⁻¹
[1]; [7]
  % AUCextrap: 5.2%
  AUCinf/Dose: 720
  Clast: 1.9 ng/mL
  Cmax/Dose: 232
  Tlast: 48 h
  kel: 0.0456 h⁻¹
[1]; 5 mg
  Cmax: 5.8 ng/mL
  Tmax: 0.75 h
  concentration at 24 h: 0.14 ng/mL
[1]; 5 mg, AUC0-24, healthy males, single oral 5 mg
  AUC(0-t): 21.6 ng·h/mL
[1]; 5 mg, AUClast, healthy males, single oral 5 mg
  AUC(0-t): 16.5 ng·h/mL
[1]; 10 mg
  AUC(0-inf): 102 ng·h/mL
  CL/F: 19.7 mL/min/kg
  Cmax: 20.8 ng/mL
  Tmax: 1.17 h
  Vd/F: 33.3 L/kg
  concentration at 24 h: 0.37 ng/mL
  half-life: 18.9 h
[1]; 10 mg, AUC0-24, healthy males, single oral 10 mg
  AUC(0-t): 63 ng·h/mL
[1]; 10 mg, AUC0-48, healthy males, single oral 10 mg
  AUC(0-t): 96 ng·h/mL
[1]; 10 mg, AUClast, healthy males, single oral 10 mg
  AUC(0-t): 69 ng·h/mL
[1]; 15 mg
  AUC(0-inf): 129 ng·h/mL
  CL/F: 30.2 mL/min/kg
  Cmax: 42.2 ng/mL
  Tmax: 0.88 h
  Vd/F: 33.7 L/kg
  concentration at 24 h: 1 ng/mL
  half-life: 13.3 h
[1]; 15 mg, AUC0-24, healthy males, single oral 15 mg
  AUC(0-t): 107 ng·h/mL
[1]; 15 mg, AUC0-48, healthy males, single oral 15 mg
  AUC(0-t): 129 ng·h/mL
[1]; 15 mg, AUClast, healthy males, single oral 15 mg
  AUC(0-t): 122 ng·h/mL
[1]; 20 mg
  AUC(0-inf): 154 ng·h/mL
  CL/F: 26.5 mL/min/kg
  Cmax: 56.1 ng/mL
  Tmax: 0.75 h
  Vd/F: 32.9 L/kg
  concentration at 24 h: 0.74 ng/mL
  half-life: 14.4 h
[1]; 20 mg, AUC0-24, healthy males, single oral 20 mg
  AUC(0-t): 139 ng·h/mL
[1]; 20 mg, AUC0-48, healthy males, single oral 20 mg
  AUC(0-t): 149 ng·h/mL
[1]; 20 mg, AUClast, healthy males, single oral 20 mg
  AUC(0-t): 149 ng·h/mL
[1]; 40 mg
  AUC(0-inf): 321 ng·h/mL
  CL/F: 29.9 mL/min/kg
  Cmax: 123 ng/mL
  Tmax: 0.83 h
  Vd/F: 38.1 L/kg
  concentration at 24 h: 1.4 ng/mL
  half-life: 15.6 h
[1]; 40 mg, AUC0-24, healthy males, single oral 40 mg
  AUC(0-t): 291 ng·h/mL
[1]; 40 mg, AUC0-48, healthy males, single oral 40 mg
  AUC(0-t): 309 ng·h/mL
[1]; 40 mg, AUClast, healthy males, single oral 40 mg
  AUC(0-t): 309 ng·h/mL
[1]; 80 mg
  AUC(0-inf): 772 ng·h/mL
  CL/F: 25.3 mL/min/kg
  Cmax: 245 ng/mL
  Tmax: 1 h
  Vd/F: 33.5 L/kg
  concentration at 24 h: 5.5 ng/mL
  half-life: 15.3 h
[1]; 80 mg, AUC0-24, healthy males, single oral 80 mg
  AUC(0-t): 647 ng·h/mL
[1]; 80 mg, AUC0-48, healthy males, single oral 80 mg
  AUC(0-t): 730 ng·h/mL
[1]; 80 mg, AUClast, healthy males, single oral 80 mg
  AUC(0-t): 730 ng·h/mL
MAO-A
  pharmacodynamic activity: MAO-A activity: inhibits MAO-A activity
